target: T1, DGAT1 enzyme (Homo sapiens, UniProt O75907); assay: DGAT1 inhibitory activity test; format: biochemical; conditions: test compound concentration of 0.05 μg/ml; [14C]-oleoyl-CoA, 23° C., 30 minutes; read-out: Inhibitory Rate
T1 construct: made in house
T1 sequence (O75907 1-488): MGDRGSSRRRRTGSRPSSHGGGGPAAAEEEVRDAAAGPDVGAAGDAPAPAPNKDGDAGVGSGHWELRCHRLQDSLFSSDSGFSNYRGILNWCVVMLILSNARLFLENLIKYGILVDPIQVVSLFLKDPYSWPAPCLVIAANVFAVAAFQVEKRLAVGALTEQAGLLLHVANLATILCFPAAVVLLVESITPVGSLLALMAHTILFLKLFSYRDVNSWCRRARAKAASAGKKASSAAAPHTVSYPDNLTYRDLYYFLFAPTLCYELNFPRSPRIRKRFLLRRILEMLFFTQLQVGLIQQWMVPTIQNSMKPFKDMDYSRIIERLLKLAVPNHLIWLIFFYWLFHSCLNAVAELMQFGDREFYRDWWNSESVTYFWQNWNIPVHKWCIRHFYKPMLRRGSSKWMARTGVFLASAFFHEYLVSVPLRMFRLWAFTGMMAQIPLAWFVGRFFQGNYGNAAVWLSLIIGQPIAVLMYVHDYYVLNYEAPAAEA
Description: (1) Preparation of DGAT1 Enzyme
DGAT1 enzyme was prepared and stored according to the method described in US2007/0249620.
(2) DGAT1 Inhibitory Activity Test
A reaction solution having the following composition was incubated at room temperature (23° C.) for 30 minutes: 175 mM Tris-HCl (pH 8.0), 8 mM MgCl2, 1 mg/ml BSA, 0.3 mM 1,2-dioleoyl-sn-glycerol (10-fold concentration of EtOH solution, 10% added), 10 μM [^14C]-oleoyl-CoA (approximately 50 mCi/mmol), 0.5% Triton X-100, the DGAT1 enzyme (10 μg) obtained in Test Example 1(1), and a test compound or vehicle (DMSO/MeOH, 7:3 solution, 5% added), 50 μl in total. A reaction stop solution […] consisting of isopropanol/1-heptane/water (80:20:2, v/v/v) was added to the reaction solution and stirred. Subsequently, water […] and 1-heptane (100 μl) were added thereto and stirred. The 1-heptane layer […] was spotted onto a TLC plate and developed with a developing solvent consisting of 1-hexane/diethyl ether/acetic acid (85:15:1, v/v/v). The radioactivity of the triglyceride fraction was quantified using BAS2500 Bio Image Analyzer (FUJIFILM) and compared with the control. The inhibitory activity of the test compound was calculated according to the formula shown below. In this context, the radioactivity at no reaction (0 minute incubation) was used as background.
Inhibitory Rate=100−[(Radioactivity of sample supplemented with test compound)−(Background)]/[(Radioactivity of control)−(Background)]×100

Inhibition at 0.05 µg/mL, ≥ 50%:
O=C(O)C[C@H]1CC[C@H](OC(=O)N2CCc3cc(NC(=O)Nc4ccc(F)cc4F)ccc3C2)CC1 [Example 1, trans-6-[3-(2,4-difluoro-phenyl)-ureido]-3,4-dihydro-1H-isoquinoline-2-carboxylic acid 4-carboxymethyl-cyclohexyl ester]
O=C(O)C[C@H]1CC[C@H](OC(=O)N2CCc3cc(NC(=O)Nc4cccc(F)c4F)ccc3C2)CC1 [Example 3, trans-6-[3-(2,3-difluoro-phenyl)-ureido]-3,4-dihydro-1H-isoquinoline-2-carboxylic acid 4-carboxymethyl-cyclohexyl ester]
O=C(O)C[C@H]1CC[C@H](OC(=O)N2CCc3cc(NC(=O)Nc4cc(F)ccc4F)ccc3C2)CC1 [Example 4, trans-6-[3-(2,5-difluoro-phenyl)-ureido]-3,4-dihydro-1H-isoquinoline-2-carboxylic acid 4-carboxymethyl-cyclohexyl ester]
O=C(O)C[C@H]1CC[C@H](OC(=O)N2CCc3cc(NC(=O)Nc4c(F)cccc4F)ccc3C2)CC1 [Example 5, trans-6-[3-(2,6-difluoro-phenyl)-ureido]-3,4-dihydro-1H-isoquinoline-2-carboxylic acid 4-carboxymethyl-cyclohexyl ester]
Cc1cccc(NC(=O)Nc2ccc3c(c2)CCN(C(=O)O[C@H]2CC[C@H](CC(=O)O)CC2)C3)c1F [Example 6, trans-6-[3-(2-fluoro-3-methyl-phenyl)-ureido]-3,4-dihydro-1H-isoquinoline-2-carboxylic acid 4-carboxymethyl-cyclohexyl ester]
Cc1ccc(F)c(NC(=O)Nc2ccc3c(c2)CCN(C(=O)O[C@H]2CC[C@H](CC(=O)O)CC2)C3)c1 [Example 7, trans-6-[3-(2-fluoro-5-methyl-phenyl)-ureido]-3,4-dihydro-1H-isoquinoline-2-carboxylic acid 4-carboxymethyl-cyclohexyl ester]
Cc1ccc(NC(=O)Nc2ccc3c(c2)CCN(C(=O)O[C@H]2CC[C@H](CC(=O)O)CC2)C3)c(F)c1 [Example 8, trans-6-[3-(2-fluoro-4-methyl-phenyl)-ureido]-3,4-dihydro-1H-isoquinoline-2-carboxylic acid 4-carboxymethyl-cyclohexyl ester]
Cc1cccc(F)c1NC(=O)Nc1ccc2c(c1)CCN(C(=O)O[C@H]1CC[C@H](CC(=O)O)CC1)C2 [Example 9, trans-6-[3-(2-fluoro-6-methyl-phenyl)-ureido]-3,4-dihydro-1H-isoquinoline-2-carboxylic acid 4-carboxymethyl-cyclohexyl ester]
O=C(O)C[C@H]1CC[C@H](OC(=O)N2CCc3cc(NC(=O)Nc4cccc(Cl)c4F)ccc3C2)CC1 [Example 10, trans-6-[3-(3-chloro-2-fluoro-phenyl)-ureido]-3,4-dihydro-1H-isoquinoline-2-carboxylic acid 4-carboxymethyl-cyclohexyl ester]
O=C(O)C[C@H]1CC[C@H](OC(=O)N2CCc3cc(NC(=O)Nc4ccc(Cl)cc4F)ccc3C2)CC1 [Example 11, trans-6-[3-(4-chloro-2-fluoro-phenyl)-ureido]-3,4-dihydro-1H-isoquinoline-2-carboxylic acid 4-carboxymethyl-cyclohexyl ester]
O=C(O)C[C@H]1CC[C@H](OC(=O)N2CCc3cc(NC(=O)Nc4cc(Cl)ccc4F)ccc3C2)CC1 [Example 12, trans-6-[3-(5-chloro-2-fluoro-phenyl)-ureido]-3,4-dihydro-1H-isoquinoline-2-carboxylic acid 4-carboxymethyl-cyclohexyl ester]
O=C(O)C[C@H]1CC[C@H](OC(=O)N2CCc3cc(NC(=O)Nc4c(F)cccc4Cl)ccc3C2)CC1 [Example 13, trans-6-[3-(2-chloro-6-fluoro-phenyl)-ureido]-3,4-dihydro-1H-isoquinoline-2-carboxylic acid 4-carboxymethyl-cyclohexyl ester]
O=C(O)C[C@H]1CC[C@H](OC(=O)N2CCc3cc(NC(=O)Nc4ccc(F)c(F)c4F)ccc3C2)CC1 [Example 14, trans-6-[3-(2,3,4-trifluoro-phenyl)-ureido]-3,4-dihydro-1H-isoquinoline-2-carboxylic acid 4-carboxymethyl-cyclohexyl ester]
O=C(O)C[C@H]1CC[C@H](OC(=O)N2CCc3cc(NC(=O)Nc4c(F)cc(F)cc4F)ccc3C2)CC1 [Example 15, trans-6-[3-(2,4,6-trifluoro-phenyl)-ureido]-3,4-dihydro-1H-isoquinoline-2-carboxylic acid 4-carboxymethyl-cyclohexyl ester]
O=C(O)C[C@H]1CC[C@H](OC(=O)N2CCc3cc(NC(=O)Nc4ccc(C(F)(F)F)cc4F)ccc3C2)CC1 [Example 16, trans-6-[3-(2-fluoro-4-trifluoromethyl-phenyl)-ureido]-3,4-dihydro-1H-isoquinoline-2-carboxylic acid 4-carboxymethyl-cyclohexyl ester]
O=C(O)C[C@H]1CC[C@H](OC(=O)N2CCc3cc(NC(=O)Nc4ccccc4C(F)(F)F)ccc3C2)CC1 [Example 17, trans-6-[3-(2-trifluoromethyl-phenyl)-ureido]-3,4-dihydro-1H-isoquinoline-2-carboxylic acid 4-carboxymethyl-cyclohexyl ester]
O=C(O)C[C@H]1CC[C@H](OC(=O)N2CCc3cc(NC(=O)Nc4ccc(F)cc4C(F)(F)F)ccc3C2)CC1 [Example 18, trans-6-[3-(4-fluoro-2-trifluoromethyl-phenyl)-ureido]-3,4-dihydro-1H-isoquinoline-2-carboxylic acid 4-carboxymethyl-cyclohexyl ester]
COc1ccc(NC(=O)Nc2ccc3c(c2)CCN(C(=O)O[C@H]2CC[C@H](CC(=O)O)CC2)C3)c(C)c1 [Example 19, trans-6-[3-(4-methoxy-2-methyl-phenyl)-ureido]-3,4-dihydro-1H-isoquinoline-2-carboxylic acid 4-carboxymethyl-cyclohexyl ester]
Cc1ccc(NC(=O)Nc2ccc3c(c2)CCN(C(=O)O[C@H]2CC[C@H](CC(=O)O)CC2)C3)c(Cl)c1 [Example 20, trans-6-[3-(2-chloro-4-methyl-phenyl)-ureido]-3,4-dihydro-1H-isoquinoline-2-carboxylic acid 4-carboxymethyl-cyclohexyl ester]
O=C(O)C[C@H]1CC[C@H](OC(=O)N2CCc3cc(NC(=O)Nc4cccc(C(F)(F)F)c4F)ccc3C2)CC1 [Example 21, trans-6-[3-(2-fluoro-3-trifluoromethyl-phenyl)-ureido]-3,4-dihydro-1H-isoquinoline-2-carboxylic acid 4-carboxymethyl-cyclohexyl ester]
O=C(O)C[C@H]1CC[C@H](OC(=O)N2CCc3cc(NC(=O)Nc4cc(C(F)(F)F)ccc4F)ccc3C2)CC1 [Example 22, trans-6-[3-(2-fluoro-5-trifluoromethyl-phenyl)-ureido]-3,4-dihydro-1H-isoquinoline-2-carboxylic acid 4-carboxymethyl-cyclohexyl ester]
Cc1ccc(NC(=O)Nc2ccc3c(c2)CCN(C(=O)O[C@H]2CC[C@H](CC(=O)O)CC2)C3)c(C)c1 [Example 23, trans-6-[3-(2,4-dimethyl-phenyl)-ureido]-3,4-dihydro-1H-isoquinoline-2-carboxylic acid 4-carboxymethyl-cyclohexyl ester]
O=C(O)C[C@H]1CC[C@H](OC(=O)N2CCc3cc(NC(=O)Nc4ccc(Cl)cc4Cl)ccc3C2)CC1 [Example 24, trans-6-[3-(2,4-dichloro-phenyl)-ureido]-3,4-dihydro-1H-isoquinoline-2-carboxylic acid 4-carboxymethyl-cyclohexyl ester]
O=C(O)C[C@H]1CC[C@H](OC(=O)N2CCc3cc(NC(=O)Nc4c(F)cccc4C(F)(F)F)ccc3C2)CC1 [Example 25, trans-6-[3-(2-fluoro-6-trifluoromethyl-phenyl)-ureido]-3,4-dihydro-1H-isoquinoline-2-carboxylic acid 4-carboxymethyl-cyclohexyl ester]
